{"source": "paper PMC6268972", "about": "“Antiproliferative, Antimicrobial and Apoptosis Inducing Effects of Compounds Isolated from Inula viscosa” (Molecules, 2012)", "key": {"Hep-2 cells": {"system": "Hep-2 cells", "test": "MTT antiproliferative activity assay, Hep-2", "type": "cell-based", "conditions": "Homo sapiens, HEp-2; MTT, 48 h treatment, average of three replicates; read-out: IC50 Hep-2", "description": "(§1) Hep-2 (larynx carcinoma, ATCC: CCL-23), MCF-7 (breast epithelial adenocarcinoma, ATCC: HTB-22), and Vero (African green monkey kidney, ATCC: CCL-81) cell lines were kindly provided by Dr. Mona Hassuneh (Department of Biological Sciences, University of Jordan). Cells were grown in Minimum Essential Medium Eagle (Gibco, Paisley UK) supplemented with 10% heat inactivated fetal bovine serum (Gibco, Paisley UK), 29 μg/mL L-glutamine, and 40 μg/mL gentamicin. Cells were incubated in a humidified atmosphere of 5% CO2 at 37 °C.\n(§2) The antiproliferative activity of Inula viscosa compounds was measured using the MTT (3-(4,5-dimethylthiazol-2-yl)-2,5-diphenyltetrazolium bromide) assay (Promega, Madison, WI, USA). The assay detects the reduction of MTT by mitochondrial dehydrogenase to blue formazan product, which reflects the normal function of mitochondria and cell viability. Exponentially growing cells were washed and seeded at 17,000 cells/well for Hep-2 cell line and 11,000 cells/ well for MCF-7 cell line (in 200 μL of growth medium) in 96 well microplates (Nunc, Roskilde, Denmark). After 24 h incubation, a partial monolayer was formed then the media was removed and 200 μL of the medium containing the compound (initially dissolved in DMSO) were added and re-incubated for 48 h. Then 100 μL of the medium were aspirated and 15 μL of the MTT solution were added to the remaining medium (100 μL) in each well. After 4 h contact with the MTT solution, blue crystals were formed. One hundred μL of the stop solution were added and incubated further for 1 h.\n(§3) Reduced MTT was assayed at 550 nm using a microplate reader (Biotek, Winooski, VT, USA). Control groups received the same amount of DMSO (0.1%).Untreated cells were used as a negative control while, cells treated with vincristine sulfate were used as a positive control. Eight concentrations (150, 100, 50, 20, 10, 5, 2, and 1 μg/mL) were prepared from each compound and tested against the three cell lines. IC50 values were calculated as the concentrations that show 50% inhibition of proliferation on any tested cell line. Stock solutions of the compounds were dissolved in (DMSO) then diluted with the medium and sterilized using 0.2 μm membrane filters. The toxicity of DMSO was determined and the final dilution of compounds used for treating the cells contained not more than 0.1% (non toxic concentration) DMSO. IC50 values were reported as the average of three replicates. The antiproliferative effect of the tested compounds was determined by comparing the optical density of the treated cells against the optical density of the control (cells treated with media containing 0.1% DMSO)."}, "Vero cells": {"system": "Vero cells", "test": "MTT antiproliferative activity assay, Vero", "type": "cell-based, African green monkey", "conditions": "Chlorocebus sabaeus, Vero; MTT, 48 h treatment, average of three replicates; read-out: IC50 Vero", "description": "as §1, §2, §3"}, "[1]": {"system": "Methicillin resistant Staphylococcus aureus (MRSA)", "test": "Microtiter plate dilution MIC, MRSA", "type": "cell-based", "conditions": "Staphylococcus aureus, MRSA; clinical isolate, 24 h, 100% inhibition; read-out: Minimum inhibitory concentration (MIC) MRSA", "description": "(§4) The microbial strains used in this study were Escherichia coli (ATCC 10798), Salmonella typhimurium (ATCC14028), Methicillin resistant Staphylococcus aureus (MRSA, Clinical isolate), Bacillus cereus (Toxigenic strain TS), and Candida albicans (ATCC 90028). Bacterial strains were stocked onto nutrient agar slant at 4 °C, and Candida albicans was stocked onto malt agar slant at 4 °C.\n(§5) The microtiter plate dilution method was used to determine the MIC (minimum inhibitory concentration) of compounds under study. Sterile 96-well microplates (Nunc) were used for the assay. Stock compounds were dissolved in DMSO so that the final concentrations in micro wells were less than 1% DMSO and solvent controls were run at these concentrations. Positive controls of penicillin G and tetracycline (Oxoid, Hampshire, UK) were prepared at the following concentrations 2, 4, 8, 16, 31, 62.5, 125, and 250 μg/mL. 1% DMSO was used as a solvent control. Compounds were diluted to twice the desired initial test concentration (250 µg/mL) with Muller Hinton broth (MHB) (Oxoid). All wells, except the first were filled with MHB (50 μL). Compounds (100 μL) were added to the first well and serial two-fold dilutions were made down to the desired minimum concentration (2 μg/mL). An over-night culture of bacteria suspended in MHB was adjusted to turbidity equal to 0.5 McFarland standard. The plates were inoculated with bacterial suspension (50 μL/well) and incubated at 37 °C for 24 h. Then the turbidity was measured using micro-plate reader (Biotek) at 620 nm wavelength. The same procedure was used to determine the antifungal activity of compounds against Candida albicans. The medium used was malt extract broth. The yeast cells were suspended in 0.85% saline, with an optical density equivalent to 0.5 McFarland standard, and diluted 1:100 in malt extract broth to obtain the working concentration. After 24 h incubation with each compound, the turbidity was measured at 530 nm wavelength using a spectrophotometer (Biotek). Percentage inhibition for tested microorganisms was calculated using the following formula:\n(§6) MIC was determined as the lowest concentration of the compound that causes complete inhibition (100%) of each microorganism."}, "Escherichia coli": {"system": "Escherichia coli", "test": "Microtiter plate dilution MIC, E. coli", "type": "cell-based", "conditions": "Escherichia coli, ATCC10798; ATCC 10798, 24 h, 100% inhibition; read-out: Minimum inhibitory concentration (MIC) E.c", "description": "as §4, §5, §6"}, "Salmonella typhimurium": {"system": "Salmonella typhimurium", "test": "Microtiter plate dilution MIC, S. typhimurium", "type": "cell-based", "conditions": "Salmonella enterica, ATCC 14028 / TYPHIMURIUM; ATCC14028, 24 h, 100% inhibition; read-out: Minimum inhibitory concentration (MIC) S.t", "description": "as §4, §5, §6"}, "Candida albicans": {"system": "Candida albicans", "test": "Microtiter plate dilution MIC, C. albicans", "type": "cell-based", "conditions": "Candida albicans, ATCC90028; ATCC 90028, malt extract broth, 24 h, 100% inhibition; read-out: Minimum inhibitory concentration (MIC) C.a", "description": "as §4, §5, §6"}, "MCF-7 cells": {"system": "MCF-7 cells", "test": "TUNEL colorimetric apoptosis assay", "type": "cell-based, human", "conditions": "15 µg/mL, 28 h, compared with untreated cells", "description": "Apoptosis was detected using terminal deoxynucleotidyl transferase (TdT) mediated-16-deoxyuridine triphosphate (dUTP) Nick-End Labelling (TUNEL) system (Promega, Madison, WI, USA). MCF-7 cells cultured in 24 well plates were treated with 15 µg/mL of either 3-O-methylquercetin or 3,3′-di-O-methylquercetin for 28 h. The assay was conducted according to the manufacturer's instructions. Briefly, treated cells were fixed using 10% formalin followed by washing with phosphate buffer saline (PBS). Cells were then permeabilized using 0.2% triton X-100. Biotinylated dUTP in rTdT reaction mixture was added to label the fragmented DNA at 37 °C for one hour, followed by blocking endogenous peroxidases using 0.3% hydrogen peroxide. Streptavidin HRP (1:500 in PBS) was added and incubated at room temperature for 30 min. Finally, hydrogen peroxide and chromagen diaminobenzidine were used to visualize nuclei with fragmented DNAs under the light microscope (Novex, Arnhem, Holland). Cells treated with 40 nM vincristine sulfate were used as a positive control while untreated cells were used as a negative control."}}}
{"compound": "COc1cc(-c2oc3cc(O)cc(O)c3c(=O)c2OC)ccc1O", "note": "[3,3′-di-O-Methylquercetin]", "values": [{"measurement": "IC50", "setting": "Hep-2 cells", "value": "28 ± 1.13", "unit": "µg/mL"}, {"measurement": "IC50", "setting": "Vero cells", "value": "> 150", "unit": "µg/mL"}, {"measurement": "MIC", "setting": "[1]", "value": 250, "unit": "µg/mL"}, {"measurement": "MIC", "setting": "Escherichia coli", "value": "> 250", "unit": "µg/mL"}, {"measurement": "MIC", "setting": "Salmonella typhimurium", "value": 125, "unit": "µg/mL"}, {"measurement": "MIC", "setting": "Candida albicans", "value": 250, "unit": "µg/mL"}, {"measurement": "Apoptosis induction (DNA fragmentation, TUNEL)", "setting": "MCF-7 cells", "value": "increase in the number of apoptotic cells with fragmented DNA"}]}
